Test results as given in PubChem BioAssay AID1918945 (Molecular Pharmacology Branch, DTP, NCI, 2023).
Values joined by “and” are separate entries in the source; they are usually repeats but may differ in a detail not shown here. Equal entries are not always repeated.

System: 883617-216-R-J1-PDC complex spheroid viability
Test: Anticancer human tumor 883617-216-R-J1-PDC patient-derived bladder carcinoma cell line growth inhibition
Settings: for IC50: curve of first compound; for viability, T/C: stronger effect = lower value; active means viability on the fitted dose curve at most 10% of control; inactive means the rest
Excerpt: Multicellular complex tumor spheroid response to LSD1 Inhibitor Iadademstat in combination with a variety of drugs and investigational agents in selected tumor cell lines
The current study was undertaken to assess response to LSD1 inhibitors in combination with standard-of-care drugs and investigational agents in solid tumor complex spheroid models as well as in the K-562 leukemia. Complex spheroids include a stromal component modeled by human endothelial cells (HUVEC) and fibroblasts modeled by human mesenchymal stem cells (MSCs). The concentration ranges selected for each drug and investigational agent were based upon clinically achievable concentrations if the clinical Cmax of the agent was known.
Compounds. The drugs and investigational agents used in this study are listed on Table 1. All of the agents used, including staurosporine (NSC755774) and gemcitabine (NSC613327), were obtained from the Developmental Therapeutics Program, NCI. FDA-approved anticancer drugs are available from the NCI at http://dtp.nci.nih.gov/branches/dscb/oncology_drugset_explanation.html. Drugs and investigational agents were >95% pure by proton nuclear magnetic resonance (NMR) and liquid chromatography/mass spectrometry (LC/MS). Stock solutions were prepared at 400x in DMSO, stored at -70 degrees C, and diluted in fresh medium prior to their use. The final concentration of DMSO in cell culture wells never exceeded 0.25% (v/v). The FDA-approved anticancer drug set is available from the Developmental Therapeutics Program at https://dtp.cancer.gov/organization/dscb/obtaining/available_plates.htm. All drugs and investigational agents were tested over a range starting from a high concentration at or near the clinical Cmax and decreasing in half-log increments. If the clinical Cmax for an agent had not been determined, the highest concentration tested was 10 microM.
Cell Lines. The patient-derived cancer cell (PDC) lines: 292921-168-R-J2-PDC, K24384-001-R-PDC, and 521955-158-R2-J5-PDC pancreatic carcinomas, 556581-035-R-J1 ovarian carcinoma, 324938-238-R-J1-PDC, 855422-203-R-J1-PDC and 883617-216-R-J1-PDC urothelial bladder carcinomas, 743489-274-T-PDC renal cell carcinoma, 138582-R-J1 Merkel cell tumor, K60290-347-R-J1 and K57222-313-R-J1-PDC glioblastomas, 653999-131-R-J2-PDC, LG0703-F948-PDC, and 349418-098-R-PDC non-small cell lung carcinomas, 885512-296-R-J2-PDC, 171881-019-R-J1-PDC breast carcinomas and 186277-243-T-J2-PDC and 233499-124-R-J2-PDC colon carcinomas were obtained from the NCI Patient-Derived Models Repository (PDMR, https://pdmr.cancer.gov). The established cell lines NCI/ADR-RES (RRID:CVCL_14520 and OVCAR-5 (RRID:CVCL_1628) ovarian carcinomas, 786-O (RRID:CVCL_1051) and A498 (RRID:CVCL_A498) renal cell carcinoma, NCI-H211 (ATCC, cat. CRL-5824; RRID:CVCL_1529), NCI-H196 (ATCC, cat. CRL-5823, RRID:CVCL_1509), SW 1271 (ATCC, cat. CRL-2177, RRID:CVCL_1716) and NCI-H1876 (ATCC, cat. CRL-5902, RRID:CVCL_1503) small cell lung carcinomas, MDA-MB-231 (RRID:CVCL_0062) and MDA-MB-468 (RRID:CVCL_0419)breast carcinomas (10-12). Pooled donor human umbilical vein endothelial cells (HUVEC, Lonza, cat. CC-2519) and human mesenchymal stem cells (hMSC, Lonza, cat. PT-2501) were purchased from Lonza (Walkersville, MD).
Cell Culture. All cells were maintained in an incubator at 37 degrees C and 5% CO2 with 95% humidity. The PDC lines were cultured according to standard operating procedures established by the NCI PDMR (https://pdmr.cancer.gov). Briefly all PDCs were thawed and cultured in Matrigel-coated flasks prepared with a working solution of 1X Ham's F-12 nutrient mix, without supplementation (Invitrogen, Waltham, MA, cat. 11765054), 100 U/mL penicillin-streptomycin (Invitrogen, cat. 15140122), and 2.5% Matrigel (Corning Inc., Corning, NY, cat. 354248) for the first three passages. […]

[1] = second compound 0.1 µM, first compound 0.00316 µM
[2] = second compound 0.1 µM, first compound 0.01 µM
[3] = second compound 0.1 µM, first compound 0.0316 µM
[4] = second compound 0.1 µM, first compound 0.1 µM
[5] = second compound 0.1 µM, first compound 0.316 µM
[6] = second compound 0.1 µM, first compound 1 µM
[7] = second compound 0.316 µM, first compound 0.00316 µM
[8] = second compound 0.316 µM, first compound 0.01 µM
[9] = second compound 0.316 µM, first compound 0.0316 µM
[10] = second compound 0.316 µM, first compound 0.1 µM
[11] = second compound 0.316 µM, first compound 0.316 µM
[12] = second compound 0.316 µM, first compound 1 µM
[13] = second compound 1 µM, first compound 0.00316 µM
[14] = second compound 1 µM, first compound 0.01 µM
[15] = second compound 1 µM, first compound 0.0316 µM
[16] = second compound 1 µM, first compound 0.1 µM
[17] = second compound 1 µM, first compound 0.316 µM
[18] = second compound 1 µM, first compound 1 µM
[19] = second compound 3.16 µM, first compound 0.00316 µM
[20] = second compound 3.16 µM, first compound 0.01 µM
[21] = second compound 3.16 µM, first compound 0.0316 µM
[22] = second compound 3.16 µM, first compound 0.1 µM
[23] = second compound 3.16 µM, first compound 0.316 µM
[24] = second compound 3.16 µM, first compound 1 µM
[25] = second compound 10 µM, first compound 0.00316 µM
[26] = second compound 10 µM, first compound 0.01 µM
[27] = second compound 10 µM, first compound 0.0316 µM
[28] = second compound 10 µM, first compound 0.1 µM
[29] = second compound 10 µM, first compound 0.316 µM
[30] = second compound 10 µM, first compound 1 µM
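Further: exposure lasted seven days after three days of spheroid growth.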
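Wherever viability, T/C is given: 100% = DMSO vehicle control luminescence.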

O=C(C=Cn1cnc(-c2cc(C(F)(F)F)cc(C(F)(F)F)c2)n1)NNc1cnccn1 + NC1CC1c1ccc(-c2cccc(O)c2)cc1
5.05 nM: IC50 (second compound 3.16 µM)
5.37 nM: IC50 (second compound 0.316 µM)
6.13 nM: IC50 (second compound 0.1 µM)
inactive: viability, T/C [1] 76.8% | viability, T/C [2] 28.8% | viability, T/C [3] 23.8% | viability, T/C [4] 17.6% | viability, T/C [5] 15.6% | viability, T/C [6] 15.6% | viability, T/C [7] 65.9% | viability, T/C [8] 31.3% | viability, T/C [9] 19.1% | viability, T/C [10] 14.8% | viability, T/C [11] 16% | viability, T/C [12] 14.3% | viability, T/C [13] 66.5% | viability, T/C [14] 28.1% | viability, T/C [15] 18.4% | viability, T/C [16] 15.9% | viability, T/C [17] 16.3% | viability, T/C [18] 15.5% | viability, T/C [19] 65.1% | viability, T/C [20] 28.1% | viability, T/C [21] 17.5% | viability, T/C [22] 16% | viability, T/C [23] 14.6% | viability, T/C [24] 14.3% | viability, T/C [25] 60% | viability, T/C [26] 24.8% | viability, T/C [27] 18.2% | viability, T/C [28] 15.1% | viability, T/C [29] 15.4% | viability, T/C [30] 15.8%
4.37 nM: IC50 (second compound 10 µM)
5.18 nM: IC50 (second compound 1 µM)

COc1cc(Nc2ncc3c(n2)-c2ccc(Cl)cc2C(c2c(F)cccc2OC)=NC3)ccc1C(=O)O + NC1CC1c1ccc(-c2cccc(O)c2)cc1
18.8 nM: IC50 (second compound 3.16 µM)
inactive: viability, T/C [1] 92.4% | viability, T/C [2] 76.6% | viability, T/C [3] 48.8% | viability, T/C [4] 37.8% | viability, T/C [5] 37.3% | viability, T/C [6] 33.4% | viability, T/C [7] 109% | viability, T/C [8] 67.8% | viability, T/C [9] 52.6% | viability, T/C [10] 37.6% | viability, T/C [11] 36.7% | viability, T/C [12] 36% | viability, T/C [13] 106% | viability, T/C [14] 60.9% | viability, T/C [15] 43.2% | viability, T/C [16] 39.7% | viability, T/C [17] 34.5% | viability, T/C [18] 36.5% | viability, T/C [19] 81.8% | viability, T/C [20] 63.1% | viability, T/C [21] 38.8% | viability, T/C [22] 37.2% | viability, T/C [23] 36.6% | viability, T/C [24] 31.5% | viability, T/C [25] 72.7% | viability, T/C [26] 54.7% | viability, T/C [27] 46.3% | viability, T/C [28] 31.6% | viability, T/C [29] 35.1% | viability, T/C [30] 32.6%
30.4 nM: IC50 (second compound 0.1 µM)
30.5 nM: IC50 (second compound 0.316 µM)
16.9 nM: IC50 (second compound 10 µM)
20.6 nM: IC50 (second compound 1 µM)

Nc1ncn(C2CC(O)C(CO)S2)c(=O)n1 (stereo unspecified)
inactive: viability, T/C (compound 0.000949 µM) 108% and 85.9% | viability, T/C (compound 0.003 µM) 105% and 77% | viability, T/C (compound 0.00949 µM) 87.3% and 55.7% | viability, T/C (compound 0.03 µM) 69% and 39.4% | viability, T/C (compound 0.0949 µM) 58% and 34.1% | viability, T/C (compound 0.3 µM) 44% and 27.4%
